# Test results from EP2589385A1, “TRIPLE COMBINATION FOR THE TREATMENT OF CANCER” (Fundación Centro Nacional de Investigaciones Oncológicas, priority 2011, dated 2013).
# Legend:
# [1] = test system: phosphorylation of Smad2; assay: Smad2 phosphorylation assay (western blot); assay type: cell-based, human; conditions: simultaneous treatment with inhibitor and rNodal or rActivin
# From the text: PVDF membranes containing electrophoretically separated proteins from human primary pancreatic cancer cells and spheres were probed with mouse antibodies against Nodal (ab556676; Abcam, Inc.), Smad2 (3103; Cell Signalling Technology, Inc.), GAPDH (ab8245-100; Abcam, Inc.), Smad4 (sc-7966; Santa Cruz Biotechnology, Inc.) and rabbit antibody against pSmad2 (3108; Cell Signalling Technology, Inc.), treated with peroxidase-conjugated goat anti-mouse or anti-rabbit Ig secondary antibody (Sigma), and then visualized by enhanced chemoluminescence (Amersham, Inc.). Human primary pancreatic cancer cells were serum-starved for 3h in RPMI (GIBCO). Following starvation, the cells were incubated for 30 min at 37°C with recombinant human Nodal or Activin proteins (300 ng/ml and 100 ng/ml, respectively; R&D) either alone or in the presence of the SB431542 (10 µM, Sigma). Anti-Smad2 and anti-phospho-Smad2 (Ser465/467) Antibodies (Cell Signalling Technology) were used, following the manufacturer's instructions.
# [2] = test system: human primary pancreatic cancer cells (A6L and 185); assay: Viability of adherent cells after inhibitor pretreatment; assay type: cell-based; conditions: pretreatment with inhibitor
# [3] = test system: A6L and 185 cells; assay: Sphere formation assay (CSC self-renewal); assay type: cell-based, human; conditions: for sphere formation / sphere forming capacity: 10, 20, and 40µM, 7 days, vs control
# Description: (§1) Human pancreatic tumours were obtained with written informed consent from all patients. For in vitro studies, tissue fragments were minced, enzymatically digested with collagenase (Stem Cell Technologies, Vancouver, BC) for 90 min at 37°C (Mueller TM et al. Gastroenterology 2009 137(3):1102-13) and after centrifugation for 5 min at 1200 rpm the pellets were resuspended and cultured in RPMI, 10%FBS and 50units/ml pen/strep. Pancreatic cancer spheres were generated by placing the pancreatic cancer cell in suspension (20,000 cells/ml) in serum-free DMEM/F12 media, supplemented with B27 (1:50, Invitrogen), 20ng/ml bFGF and 50units/ml pen/strep. After 7 days of incubation, spheres were typically >75µm big with ~97% CD133high. For serial passaging, 7-day-old spheres were harvested using 40µm cell strainers, dissociated to single cells with trypsin, and then re-grown for 7 days. Cultures were kept no longer than 4 weeks after recovery from frozen stocks.
# [4] = test system: pancreatic cancer cells (185 and A6L); assay: Invasion assay, modified Boyden chamber with Matrigel; assay type: cell-based, human; conditions: for effects of Nodal and Activin on cell invasiveness: cells pretreated with inhibitor at 20µM
# Description: Invasion assays were performed using modified Boyden chambers filled with Matrigel™ (BioCoat®, BD Biosciences, Heidelberg, Germany). […] 500µl of cell suspensions containing 5x10^4 pre-treated or untreated cells were added to the Matrigel™ coated inserts, and 750µl of serum-free medium with or without 300ng/ml recombinant human Nodal was added to the lower chamber. The assay chambers were incubated for 22h at 37°C. Invaded cells were fixed in 4% PFA and stained with DAPI. The ratios of cells in the lower chamber versus total seeded cells (in per cent) were calculated.
# [5] = test system: CD133+ population; assay: CD133 content by flow cytometry after in vitro treatment; assay type: cell-based, human
# Description: To identify pancreatic CSC, the following antibodies were used: anti-CD133/1-APC or PE; CD133/2-APC (all Miltenyi, Bergisch-Gladbach, Germany) was used for purity testing after MACSorting; EpCAM-FITC, CD44-PE or appropriate isotype-matched control antibodies (Beckton Dickinson, Heidelberg, Germany). Propidium iodide or 7-AAD was used for exclusion of dead cells (eBiosciences, San Diego, CA). Samples were analysed by flow cytometry using a FACS Canto II (BD) and data were analysed with FlowJo 9.2 software (Ashland, Oregon).
# [6] = test system: CD133+ cells; assay: Cell cycle analysis with BrdU flow kit; assay type: cell-based, human
# [7] = test system: L3.6pl cells; assay: In vivo treatment of established orthotopic pancreatic cancer cell line xenografts; design: species or system female NMRI nu/nu mice
# Description: (§2) Single-cell suspensions were either orthotopically implanted into the pancreas of female NMRI nu/nu mice (Janvier, Le Genest-Saint-Isle, France) or 2mm3 pieces of primary, in vivo expanded pancreatic cancer tissue were subcutaneously implanted, and mice were randomized to the respective treatment groups. Size and weight of the pancreatic tumours were monitored. Gemcitabine was administered twice a week (125 mg/kg i.p.). SB431542 was used at 25 mg/kg and CUR199691 at 100 mg/kg, both by oral gavages twice daily for three weeks.
# Mice were analysed with a 3-Tesla MRI system (Magnetom Tim Trio, Siemens, Erlangen, Germany) using a dedicated small animal coil and T2-weighted scanning.
# [8] = test system: primary human pancreatic cancer tissue xenografts; assay: In vivo treatment of primary human pancreatic cancer tissue xenografts; design: species or system female NMRI nu/nu mice
# Description: as §2
# [9] = test system: cells isolated from harvested tumours; assay: Sphere formation capacity of cells isolated from treated tumours on day 100; assay type: cell-based, human; conditions: cells from tumours harvested on day 100 (Fig. 7G, left panel)
# Description: as §1
# [10] = test system: CD133+ CSC; conditions: treatment with gemcitabine; cited from earlier work
# [11] = test system: xenotransplanted human pancreatic cancer; conditions: in vivo therapy with gemcitabine; cited from earlier work
compound,measurement,setting,value
NC(=O)c1ccc(-c2nc(-c3ccc4c(c3)OCO4)c(-c3ccccn3)[nH]2)cc1 [SB431542],reversal of rNodal/rActivin-enhanced phosphorylation of Smad2,[1],almost reversed this enhanced phosphorylation of Smad2
same,viability of adherent cells,[2],did not affect the viability of adherent cells
same,sphere formation / sphere forming capacity,[3],"dose-dependently (10, 20, and 40µM) blocked sphere formation as compared to control"
same,effects of Nodal and Activin on cell invasiveness,[4],significantly attenuated the effects of Nodal and Activin on cell invasiveness
same,cell invasion of sphere-derived cells,[4]; conditioned medium from PSC cells in the lower compartment (Fig. 17B),Cell invasion was abrogated
same,time until the CD133+ population replenished,[5]; after four days of treatment with SB431542 alone,≤ 48 h
same,CD133 content / CD133+ population,[5]; four days of treatment,marked decrease in CD133 content
same,percentage of CD133+ cells in S phase,[6],did not affect the percentage of CD133+ cells in S phase
same,percentage of apoptotic CD133+ cells,[6]; result in words,nor did it increase the percentage of apoptotic CD133+ cells
Cc1cccc(-c2nn3c(c2-c2ccnc4ccc(C(N)=O)cc24)CCC3)n1 [LY2157299],viability of adherent cells,[2],did not affect the viability of adherent cells
same,sphere formation / sphere forming capacity,[3],did not display any effects on sphere forming capacity
same,sphere forming capacity,[3]; summary statement of Example 8 (Fig. 4A),neither the Alk5 inhibitor LY2157299 nor the TGF-β receptor II neutralizing antibodies resulted in significant changes of sphere forming capacity
same,enhanced invasiveness of CSC treated with rTGF-β,[4]; Alk5 inhibitor with rTGF-β,abrogated the enhanced invasiveness of CSC treated with rTGF-β
"Nc1ccn([C@@H]2O[C@H](CO)[C@@H](O)C2(F)F)c(=O)n1 [gemcitabine, 4-amino-l-[3,3-difluoro-4-hydroxy-5-(hydroxymethyl)tetrahydrofuran-2-yl]-1 H-pyrimidin-2-one]",survival / long-term survival,[7]; follow-up until day 100 (Fig. 7C),significantly prolonged survival
same,tumour take rate,[7]; orthotopic cell line xenografts,100%
same,median survival,"[7]; orthotopic cell line xenografts, treatment started one week after injection, control 32 days",54 days
same,histological differentiation of remaining tumours,[8]; day 100,poor differentiation
same,tumour growth after gemcitabine withdrawal,[8]; long-term follow-up,reaccelerated in growth
same,sphere forming capacity,[9],strong sphere forming capacity
same,effect on CD133+ CSC,[10],no detectable effect
same,CD133+ cells in the residual tumour tissue,[11],significant enrichment of CD133+ cells in the residual tumour tissue
Cc1cccc(-c2[nH]c(C(C)(C)C)nc2-c2ccc3c(c2)OCO3)n1 [SB505124],effects of Nodal and Activin on cell invasiveness,[4],significantly attenuated the effects of Nodal and Activin on cell invasiveness
